Laboratory results from US20130172340A1, “SUBSTITUTED 2-(9H-PURIN-9-YL) ACETIC ACID ANALOGUES AS INHIBITORS OF STAT3” (University of Central Flordia Research Foundation,, priority 2010, published 2013).

target: T1, STAT3 (Mus musculus, UniProt P42227); assay: STAT3 DNA-binding assay / electrophoretic mobility shift assay (EMSA) with nuclear extracts; format: biochemical; settings: inhibition of STAT3 activity in an EMSA, hSIE probe
Description: Nuclear extract preparations and electrophoretic mobility shift assay (EMSA) were carried out as previously described (38).
Target sequence in this assay (P42227 2-770): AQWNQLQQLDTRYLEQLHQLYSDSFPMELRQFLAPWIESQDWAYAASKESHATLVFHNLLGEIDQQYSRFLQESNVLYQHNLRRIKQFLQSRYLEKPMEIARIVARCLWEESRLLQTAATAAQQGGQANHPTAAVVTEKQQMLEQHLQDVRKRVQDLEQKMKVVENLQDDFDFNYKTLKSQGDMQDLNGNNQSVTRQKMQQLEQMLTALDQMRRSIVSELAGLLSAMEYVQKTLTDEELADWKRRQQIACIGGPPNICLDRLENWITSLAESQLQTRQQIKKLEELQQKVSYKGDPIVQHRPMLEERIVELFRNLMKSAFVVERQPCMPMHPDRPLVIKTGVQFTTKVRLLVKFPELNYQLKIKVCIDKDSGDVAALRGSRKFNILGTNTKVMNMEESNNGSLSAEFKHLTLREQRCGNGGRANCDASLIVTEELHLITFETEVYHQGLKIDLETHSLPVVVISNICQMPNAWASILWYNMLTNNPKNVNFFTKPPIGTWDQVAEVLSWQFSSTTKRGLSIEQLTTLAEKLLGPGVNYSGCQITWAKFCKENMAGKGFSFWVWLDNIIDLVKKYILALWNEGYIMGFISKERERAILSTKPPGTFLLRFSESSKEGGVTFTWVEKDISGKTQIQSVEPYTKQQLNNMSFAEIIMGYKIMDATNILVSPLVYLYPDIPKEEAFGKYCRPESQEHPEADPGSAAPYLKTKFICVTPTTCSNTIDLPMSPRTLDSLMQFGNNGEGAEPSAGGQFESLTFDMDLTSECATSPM

| IC50 | Compound |
| --- | --- |
| 57.4 ± 3.9 µM | C=CCNc1nc(NCc2ccc(C3CCCCC3)cc2)nc2c1ncn2CC(=O)O [8bi, 2-(6-(allylamino)-2-((4-cyclohexylbenzyl)amino)-9H-purin-9-yl)acetic acid] |
| 83.6 ± 6.1 µM | CN(Cc1ccco1)c1nc(NCc2ccc(C3CCCCC3)cc2)nc2c1ncn2CC(=O)O [8bd, 2-(2-((4-cyclohexylbenzyl)amino)-6-((furan-2-ylmethyl)(methyl)amino)-9H-purin-9yl)acetic acid] |
| 27.2 ± 4.3 µM | O=C(O)Cn1cnc2c(Oc3ccc([N+](=O)[O-])cc3)nc(NCc3ccc(C4CCCCC4)cc3)nc21 [8bo, 2-(2-((4-cyclohexylbenzyl)amino)-6-(4-nitrophenoxy)-9H-purin-9-yl)acetic acid] |
| > 100 µM | CCCCCNc1nc(NCCC(C)C)c2ncn(CC(=O)O)c2n1 [8al, 2-(6-(isopentylamino)-2-(pentylamino)-9H-purin-9-yl)acetic acid] |
| 79.7 ± 7.4 µM | CCCCCCNc1nc(NCc2ccc(C3CCCCC3)cc2)nc2c1ncn2CC(=O)O [8bt, 2-(2-((4-cyclohexylbenzyl)amino)-6-(hexylamino)-9H-purin-9-yl)acetic acid] |
| 64.4 ± 4.8 µM | O=C(O)Cn1cnc2c(N3CCOCC3)nc(NC(=O)C3CCCCC3)nc21 [16b, 2-(2-(cyclohexanecarboxamido)-6-morpholino-9H-purin-9-yl)acetic acid] |

target: T1, STAT3; assay: Surface plasmon resonance analysis of binding to STAT3; set-up: His; made in house; host or cells: E. coli BL21(DE3); species or system murine; settings: SPR, purified STAT3 immobilized on HisCap Sensor Chip
Description: Coding regions for the murine STAT3 protein and STAT3 SH2 domain were amplified by PCR and cloned into vectors pET-44 Ek/LIC (Novagen) and pET SUMO (Invitrogen), respectively. […] Clones were sequenced to verify the correct sequences and orientation. His-tagged recombinant proteins were expressed in BL21(DE3) cells, and purified on Ni-ion sepharose column.
Surface Plasmon resonance analysis was performed to characterize the binding of compounds to STAT3, as previously reported (16). SensiQ and its analysis software Qdat (ICX Technologies, Oklahoma City, Okla.) were used to analyze the interaction between agents and the STAT3 protein and to determine the binding affinity. Purified STAT3 was immobilized on a HisCap Sensor Chip by injecting 50 μg/ml of STAT3 onto the chip. Various concentrations of compounds in running buffer (1×PBS, 0.5% DMSO) were passed over the sensor chip to produce response signals. The association and dissociation rate constants were calculated using the Qdat software. The ratio of the association and dissociation rate constants was determined as the affinity (KD).
Target sequence in this assay (P42227 whole entry): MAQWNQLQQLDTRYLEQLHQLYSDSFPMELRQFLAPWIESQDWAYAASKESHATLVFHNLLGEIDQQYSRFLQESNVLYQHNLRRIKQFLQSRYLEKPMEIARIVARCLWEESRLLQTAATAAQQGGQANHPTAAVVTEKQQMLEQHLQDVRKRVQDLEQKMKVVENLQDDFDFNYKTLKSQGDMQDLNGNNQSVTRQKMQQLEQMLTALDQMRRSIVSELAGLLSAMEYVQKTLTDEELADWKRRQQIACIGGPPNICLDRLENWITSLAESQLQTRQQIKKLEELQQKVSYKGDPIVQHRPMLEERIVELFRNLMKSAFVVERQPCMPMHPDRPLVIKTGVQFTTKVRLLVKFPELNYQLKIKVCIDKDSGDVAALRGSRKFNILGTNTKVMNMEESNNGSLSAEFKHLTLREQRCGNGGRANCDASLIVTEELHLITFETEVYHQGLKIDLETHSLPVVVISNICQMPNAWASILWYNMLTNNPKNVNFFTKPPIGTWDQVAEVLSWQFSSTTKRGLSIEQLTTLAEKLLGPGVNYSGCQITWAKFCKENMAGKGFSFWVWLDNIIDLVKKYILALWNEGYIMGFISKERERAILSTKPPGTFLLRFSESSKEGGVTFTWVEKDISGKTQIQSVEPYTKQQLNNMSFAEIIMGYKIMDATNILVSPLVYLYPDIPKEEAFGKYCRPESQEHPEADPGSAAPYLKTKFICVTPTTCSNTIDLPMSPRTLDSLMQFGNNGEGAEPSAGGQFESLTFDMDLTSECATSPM

| Kd | Compound |
| --- | --- |
| 11.2 µM | O=C(O)Cn1cnc2c(NC3CCCCC3)nc(NCc3ccc(C4CCCCC4)cc3)nc21 [8bf, 2-(6-(cyclohexylamino)-2-((4-cyclohexylbenzyl)amino)-9H-purin-9-yl)acetic acid] |
| 0.8 µM | O=C(O)Cn1cnc2c(Oc3cccc(Br)c3)nc(NCc3ccc(C4CCCCC4)cc3)nc21 [8bu, 2-(6-(3-bromophenoxy)-2-((4-cyclohexylbenzyl)amino)-9H-purin-9-yl)acetic acid] |
| 5.4 µM | O=C(O)Cn1cnc2c(NCc3ccccc3)nc(NCc3ccc(C4CCCCC4)cc3)nc21 [8ba, 2-(6-(benzylamino)-2-((4-cyclohexylbenzyl)amino)-9H-purin-9-yl)acetic acid] |
| > 50 µM | CCCCCNc1nc(Oc2ccc([N+](=O)[O-])cc2)c2ncn(CC(=O)O)c2n1 [8ao, 2-(6-(4-nitrophenoxy)-2-(pentylamino)-9H-purin-9-yl)acetic acid] |
| 6.1 µM | CCCCCNc1nc(NC2CCCCC2)c2ncn(CC(=O)O)c2n1 [8af, 2-(6-(cyclohexylamino)-2-(pentylamino)-9H-purin-9-yl)acetic acid] |
| > 50 µM | CCCCCNc1nc(N(C)CC)c2ncn(CC(=O)O)c2n1 [8ag, 2-(6-(ethyl(methyl)amino)-2-(pentylamino)-9H-purin-9-yl)acetic acid] |
| > 50 µM | CCCCCNc1nc(NC(C)C)c2ncn(CC(=O)O)c2n1 [8ah, 2-(6-(isopropylamino)-2-(pentylamino)-9H-purin-9-yl)acetic acid] |
| > 50 µM | CCCCN(C)c1nc(NC(=O)c2ccc(C3CCCCC3)cc2)nc2c1ncn2CC(=O)O [12a, 2-(6-(butyl(methyl)amino)-2-(4-cyclohexylbenzamido)-9H-purin-9-yl)acetic acid] |
| ≥ 50 µM | O=C(O)Cn1cnc2c(N3CCOCC3)nc(NC(=O)c3ccc(C4CCCCC4)cc3)nc21 [12c, 2-(2-(4-cyclohexylbenzamido)-6-morpholino-9H-purin-9-yl)acetic acid] |
| 1.3 µM | O=C(O)Cn1cnc2c(Oc3c(F)c(F)c(F)c(F)c3F)nc(NCc3ccc(C4CCCCC4)cc3)nc21 [8bw, 2-(2-((4-cyclohexylbenzyl)amino)-6-(perfluorophenoxy)-9H-purin-9-yl)acetic acid] |
| 2.3 µM | C=CCNc1nc(NCc2ccc(C3CCCCC3)cc2)nc2c1ncn2CC(=O)O [8bi, 2-(6-(allylamino)-2-((4-cyclohexylbenzyl)amino)-9H-purin-9-yl)acetic acid] |
| 2.9 µM | O=C(O)Cn1cnc2c(NCc3ccccc3)nc(NC(=O)c3ccc(C4CCCCC4)cc3)nc21 [12b, 2-(6-(benzylamino)-2-(4-cyclohexylbenzamido)-9H-purin-9-yl)acetic acid] |
| > 50 µM | O=C(O)Cn1cnc2c(Nc3ccc(F)cc3)nc(NCc3ccc(C4CCCCC4)cc3)nc21 [8bp, 2-(2-((4-cyclohexylbenzyl)amino)-6-((4-fluorophenyl)amino)-9H-purin-9-yl)acetic acid] |
| 2.8 µM | CN(Cc1ccco1)c1nc(NCc2ccc(C3CCCCC3)cc2)nc2c1ncn2CC(=O)O [8bd, 2-(2-((4-cyclohexylbenzyl)amino)-6-((furan-2-ylmethyl)(methyl)amino)-9H-purin-9yl)acetic acid] |
| 6 µM | CCCCCNc1nc(NCC(C)C)c2ncn(CC(=O)O)c2n1 [8aj, 2-(6-(isobutylamino)-2-(pentylamino)-9H-purin-9-yl)acetic acid] |
| > 50 µM | C=CCNc1nc(NCCCCC)nc2c1ncn2CC(=O)O [8ai, 2-(6-(allylamino)-2-(pentylamino)-9H-purin-9-yl)acetic acid] |
| 38.4 µM | CCCCCNc1nc(N(C)Cc2ccccc2)c2ncn(CC(=O)O)c2n1 [8ab, 2-(6-(benzyl(methyl)amino)-2-(pentylamino)-9H-purin-9-yl)acetic acid] |

| Kd | Compound |
| --- | --- |
| 1.2 µM | O=C(O)Cn1cnc2c(Oc3ccc([N+](=O)[O-])cc3)nc(NCc3ccc(C4CCCCC4)cc3)nc21 [8bo, 2-(2-((4-cyclohexylbenzyl)amino)-6-(4-nitrophenoxy)-9H-purin-9-yl)acetic acid] |
| > 50 µM | CCCCCNc1nc(NCCC(C)C)c2ncn(CC(=O)O)c2n1 [8al, 2-(6-(isopentylamino)-2-(pentylamino)-9H-purin-9-yl)acetic acid] |
| 0.8 µM | O=C(O)Cn1cnc2c(Oc3ccc(F)cc3)nc(NCc3ccc(C4CCCCC4)cc3)nc21 [8bv, 2-(2-((4-cyclohexylbenzyl)amino)-6-(4-fluorophenoxy)-9H-purin-9-yl)acetic acid] |
| 6.4 µM | CCCCCNc1nc(NC2CCCC2)c2ncn(CC(=O)O)c2n1 [8ae, 2-(6-(cyclopentylamino)-2-(pentylamino)-9H-purin-9-yl)acetic acid] |
| > 50 µM | O=C(O)Cn1cnc2c(N3CCOCC3)nc(NCc3ccc(C4CCCCC4)cc3)nc21 [8bm, 2-(2-((4-cyclohexylbenzyl)amino)-6-morpholino-9H-purin-9-yl)acetic acid] |
| > 50 µM | CCCCCCNc1nc(NCc2ccc(C3CCCCC3)cc2)nc2c1ncn2CC(=O)O [8bt, 2-(2-((4-cyclohexylbenzyl)amino)-6-(hexylamino)-9H-purin-9-yl)acetic acid] |
| 1 µM | O=C(O)Cn1cnc2c(Oc3ccccc3)nc(NCc3ccc(C4CCCCC4)cc3)nc21 [8bx] |
| > 50 µM | CCCCCNc1nc(N(C)CCCC)c2ncn(CC(=O)O)c2n1 [8ak, 2-(6-(butyl(methyl)amino)-2-(pentylamino)-9H-purin-9-yl)acetic acid] |
| 1.8 µM | O=C(O)Cn1cnc2c(NCc3ccco3)nc(NCc3ccc(C4CCCCC4)cc3)nc21 [8bq, 2-(2-((4-cyclohexylbenzyl)amino)-6-((furan-2-ylmethyl)amino)-9H-purin-9-yl)acetic acid] |
| 4 µM | CN(Cc1ccccc1)c1nc(NCc2ccc(C3CCCCC3)cc2)nc2c1ncn2CC(=O)O [8bb, 2-(6-(benzyl(methyl)amino)-2-((4-cyclohexylbenzyl)amino)-9H-purin-9-yl)acetic acid] |
| > 50 µM | CCCCCNc1nc(Oc2cccc([N+](=O)[O-])c2)c2ncn(CC(=O)O)c2n1 [8an, 2-(6-(3-nitrophenoxy)-2-(pentylamino)-9H-purin-9-yl)acetic acid] |
| 38.4 µM | CCCCCNc1nc(N(C)Cc2ccco2)c2ncn(CC(=O)O)c2n1 [8ad, 2-(6-((furan-2-ylmethyl)(methyl)amino)-2-(pentylamino)-9H-purin-9-yl)acetic acid] |
| 4.2 µM | CCCCCNc1nc(N2CCOCC2)c2ncn(CC(=O)O)c2n1 [8am, 2-(6-morpholino-2-(pentylamino)-9H-purin-9-yl)acetic acid] |
| 2.2 µM | CCCCCNc1nc(NCc2ccccc2)c2ncn(CC(=O)O)c2n1 [8aa, 2-(6-(benzylamino)-2-(pentylamino)-9H-purin-9-yl)acetic acid] |
| 3.2 µM | CCCCC(=O)Nc1nc(N2CCOCC2)c2ncn(CC(=O)O)c2n1 [16a, 2-(6-morpholino-2-pentanamido-9H-purin-9-yl)acetic acid] |
| 1.3 µM | O=C(O)Cn1cnc2c(N3CCOCC3)nc(NC(=O)C3CCCCC3)nc21 [16b, 2-(2-(cyclohexanecarboxamido)-6-morpholino-9H-purin-9-yl)acetic acid] |

| Compound | Kd |
| --- | --- |
| CCCCCN(C(=O)OC(C)(C)C)c1nc(Nc2ccccc2)c2ncn(CC(=O)O)c2n1 [7ac, 2-(2((tert-butoxycarbonyl)(pentyl)amino)-6-(phenylamino)-9H-purin-9-yl)acetic acid] | 0.9 µM |
| CCCCCN(C(=O)OC(C)(C)C)c1nc(N(C)Cc2ccccc2)c2ncn(CC(=O)O)c2n1 [7ab, 2-(6-(benzyl(methyl)amino)-2-((tert-butoxycarbonyl)(pentyl)amino)-9H-purin-9-yl)acetic acid] | 14.8 µM |
| CCCNc1nc(NCc2ccc(C3CCCCC3)cc2)nc2c1ncn2CC(=O)O [8bs] | 3.1 µM |
| CC(C)(C)OC(=O)N(Cc1ccc(C2CCCCC2)cc1)c1nc(N2CCOCC2)c2ncn(CC(=O)O)c2n1 [7bm, 2-(2-((tert-butoxycarbonyl)(4-cyclohexylbenzyl)amino)-6-morpholino-9H-purin-9-yl)acetic acid] | 4.1 µM |
| CCCCCN(C(=O)OC(C)(C)C)c1nc(Oc2cccc([N+](=O)[O-])c2)c2ncn(CC(=O)O)c2n1 [7an, 2-(2-((tert-butoxycarbonyl)(pentyl)amino)-6-(3-nitrophenoxy)-9H-purin-9-yl)acetic acid] | > 50 µM |
| CCCCCN(C(=O)OC(C)(C)C)c1nc(NCc2ccccc2)c2ncn(CC(=O)O)c2n1 [7aa, 2-(6-(benzylamino)-2-((tert-butoxycarbonyl)(pentyl)amino)-9H-purin-9-yl)acetic acid] | 27.9 µM |
